Bounds are passed on as bounds.

Usually melting point stands for the temperature, or range, at which the solid turns liquid. As to `CC(OCc1cc2nc(C(F)(F)F)ccc2n1S(=O)(=O)c1ccc2ncsc2c1)C(=O)O` (stereo not drawn), the melting point turned out to be 124 °C.

Turning to `CCNc1ccccc1S(=O)(=O)C[N+](=O)[O-]`, the melting point was 82 °C.

As for `COc1ccc(CC(CSC(C)=O)C(=O)Nc2cccc(C(=O)O)c2)cc1` (stereo not drawn), the melting point was in the range of 124 to 126 °C. Next, `COc1nnc(Cl)c2c1CCCC2`: 117 to 119 °C. Consider `COCc1c(-c2cc(C)no2)ncc2[nH]c3ccc(OCc4ccccc4)cc3c12`, for which the melting point is 202 to 203 °C. Next, `Nc1sc2c(c1C(=O)c1ccc(Cl)cc1)CCC(O)C2` (stereo not drawn): 176 to 177 °C; `CCCCCCN(CCCCCC)c1ccc(C2=C(C#N)C(=C(C#N)C#N)OC2(C)C)s1`: 134 °C; `CN1C(=O)Nc2ccc(Cl)cc2C1(C#CC1(C)CC1)C(F)(F)F` (stereo not drawn): 206 to 208 °C. Next, `CCc1[nH]n(C2CCCC2)c2nc(-c3ccccc3-n3ccnc3)nc(=O)c1-2`: 192 to 194 °C; `CCC[C@H]1CC[C@H](c2ccc(OCC)c(C=O)c2)CC1`: 32 °C; `NC(=S)C=Cc1ccc(C(F)(F)F)cc1`: 167 to 170 °C. Next, `CN(C)CCOc1ccc2[nH]c(C(=O)N3CC(CCl)c4c3cc([N+](=O)[O-])c3cc(S(=O)(=O)NCCO)ccc43)cc2c1` (stereo not drawn): 205 to 210 °C; `CCCC(=O)c1c(CC)nc2c(-c3ccc(Cl)cc3Cl)nccn12`: 159 to 160 °C. Turning to `O=C(C(=O)c1ccc(Oc2ccc(O)cc2)cc1)c1ccc(Oc2ccc(O)cc2)cc1`, the melting point lay in the range of 220 to 221 °C. Compound `Cc1ccc(C(=O)Nc2c(NC(=O)CN3CCCCC3)ccc3c2C(=O)c2ccccc2C3=O)cc1` showed a melting point of 213 to 214 °C. `CC(C)CNC(=O)[C@H](C)C[C@H](O)[C@H](CC1CCCCC1)NC(=O)[C@H](Cc1cscn1)NC(=O)[C@@H](CC(=O)N(C)Cc1ccccc1)Cc1ccccc1` registered a melting point of 118 to 120 °C. Next, `CCCCCCCCOc1ccc(-c2ccc(C(=O)O[C@@H](C)C(=O)OCCCC)cc2)cc1`: 51 °C. With `Cc1cc(C)c(S(=O)(=O)Nc2cccnc2Nc2ccccc2)c(C)c1` the figure was 140 to 142 °C.

As to `CCOC(=O)c1c(-c2cccc(Cl)c2)noc1C`, the melting point lay within 71 to 73 °C. Next, `O=Cc1ccc(I)nc1`: 141 °C; `Cc1c(NC(=O)c2ccc(C#CC3(O)CCC3)cc2)ccc2cc(CNCC(C)(C)C)n(C)c12`: 232 to 233 °C. Next, `c1ccc(OCC2CCNCC2)cc1`: 42 to 43 °C.

In turn, `O=C(O)c1cc(F)c(F)cc1NC(=O)c1cc(-c2ccc(Cl)cc2)oc1C(F)(F)F` gave a melting point of 337 to 340 °C. With `O=C1CC(c2cccc(-n3ccnc3)c2)=Nc2cc(O)c(-c3ccccc3F)cc2N1` the figure was 220 °C; with `CCOC(=O)c1ccc(N(C=O)Cc2ccc(Cl)cc2)cc1`, 72 to 73 °C. Next, `CC(=O)SCC(=O)c1ccc(Cl)c(S(N)(=O)=O)c1`: 137 °C. Next, `O=C1Nc2cccc(-c3ccc(Oc4ccccc4)cc3)c2C12COc1cc3c(cc12)OCCO3` (stereo not drawn): 243 to 246 °C; `Cc1cc2c(cc1Cl)C=C(C(=O)O)C(C(F)(F)F)S2` (stereo not drawn): 240 to 242 °C; `C[C@@H](n1ncn(-c2ccc(-n3ncn(-c4ccc(OCC(F)(F)C(F)F)cc4)c3=O)cc2)c1=O)[C@@]1(c2ccc(F)cc2F)CO1`: 181 to 183 °C. Compound `CNC(=O)C(=O)CCCCCCS(=O)(=O)c1ccc(-c2ccccc2)cc1` yielded a melting point of 134 to 135 °C. On to `Cc1cc(Nc2ccnc(Nc3ccc(S(=O)(=O)N4CCC(CNCCC(=O)N(C)C)CC4)cc3)n2)ccc1F`, for which the melting point was 201 °C. Next, `O=c1[nH]c(=O)n([C@H]2CO[C@H](CO)O2)cc1/C=C/Cl`: 101 to 102 °C. Next, `CC(=O)N[C@@H](C)C(=O)NCCc1ccc(O)c(O)c1`: 200 to 202 °C; `C=CC(=O)Nc1ccc2[nH]nnc2c1`: 248 to 253 °C. Next, `c1coc(-c2nnc(-n3ccnc3)c3ccccc23)c1`: 151 to 152 °C; `C[C@@H](N(C(=O)CN)C(=O)c1ccc(C(F)(F)F)cc1)[C@](O)(Cn1cncn1)c1ccc(F)cc1F` (relative stereo): 147 to 148 °C; `Cc1oc(-c2ccccc2)nc1CCC(O)c1ccc(CCCC2OC(=O)NC2=O)cc1` (stereo not drawn): 150 to 151 °C. `CNC(=O)N(C)c1cc(C)on1` had a melting point of 77 to 78 °C. With `C[N+]([O-])=CCC=Cc1ccccc1` the figure was 85 to 86 °C. With `CSc1cc2ccccc2cc1C=Cc1cc2ccccc2cc1SC` the figure was 195 to 196 °C. With `NC(=O)NN=Cc1ccc(OC2C3CC4CC(C3)CC2C4)cc1` (stereo not drawn) the figure was 226 to 228 °C; with `COC(=O)c1ccc(Cn2nc(Br)c3ccc(C(=O)NCC4CCCC4)cc32)c(OC)c1`, 161 to 162 °C. The compound `Nc1sc2c(c1C(=O)c1ccc(Br)s1)CCCC2` displayed a melting point of 160 to 163 °C. With `O=C(O)c1ccc(-c2ccc(C(F)(F)F)cc2)s1` the figure was 227 °C.

Compound `Cc1cc2c(-c3ccccc3)c(NC(=O)N(C)Cc3ccccc3)n(C)c(=O)c2cc1C` returned a melting point of 174 to 176 °C. Next, `Cc1nc2ccc(C(=O)O)[nH]c-2c1Cc1ccc(Cl)cc1Cl`: 235 to 236 °C; `Cc1cc(Oc2c(Cl)cc(C(F)(F)F)cc2Cl)nn1C(=O)NCCCl`: 116 to 118 °C; `COc1ccc(NC(=S)C(N)=O)cc1OC`: 149 to 151 °C. With `CCC(CC)c1ccc(Cl)c2nc3n(c12)CCN3c1ccc(Cl)cc1C(N)=O` the figure was more than 300 °C; with `CN(C)Cc1cccc(OCCCNc2nc(Cc3ccccc3)n[nH]2)c1`, 140 to 141 °C; with `Oc1ccc2c(c1)CCCC2n1cc[nH]c1=S` (stereo not drawn), 213 to 215 °C. Next, `COc1cc2c(cc1OC)CN(CCCSc1ccc(NC(=O)c3cccc4c(=O)c5ccccc5[nH]c34)cc1)CC2`: 182 °C; `O=c1[nH]c2cc(-n3cnc4ccccc43)c([N+](=O)[O-])cc2[nH]c1=O`: more than 300 °C. As to `COc1nc(-c2ccc(OC(C)C)cc2)sc1C(=O)O`, the melting point lay in the range of 109 to 110 °C. With `O=C(NC1CC1)c1ccc2c(=O)nc(-c3ccccn3)sc2c1` the figure was 272 to 274 °C; with `COC(=O)[C@H]1[C@@H]2CC[C@@](NC(=O)OC(C)(C)C)(C(=O)OC)[C@@H]21`, 193 to 194 °C; with `Cc1cc2c(F)cc(F)c(-n3c(=O)cc(C(F)(F)F)n(C)c3=O)c2o1`, 176 to 178 °C.

`O=C(Nc1ccc(CCNc2ncccn2)cc1)c1cccs1`: the melting point is 191 to 192 °C.

As to `CCCC(=O)N(C)SN(C(=O)NC(=O)c1c(F)cccc1F)c1ccc(Oc2ccc(C(F)(F)F)cc2Cl)cc1F`, the melting point lay in the range of 136 to 138 °C. The compound `O=C1C2CCCC2=Nc2ccccc2N1CCc1ccccc1` (stereo not drawn) gave a melting point of 101 to 102 °C. With `O=C(c1cccc(F)c1)N1CC2CC2(c2ccccc2)C1` (stereo not drawn) the figure was 68 to 69.5 °C. Next, `CCOC(=O)NNC(=O)Cc1c(C)cc(C)cc1C`: 184 to 186 °C; `COc1cc2c(c3oc(C(=O)O)cc(=O)c13)CCC(C)(C)O2`: 225 to 226 °C. `COc1ccc2c(ccc3cc(OC)c(OC)c(OC)c32)c1` showed a melting point of 142 to 144 °C. Next, `CC(C)N1C(=O)[C@@H](CCO)O[C@H](c2ccccc2Cl)c2cc(Cl)ccc21` (relative stereo): 188 to 189 °C; `O=C(Nc1nc(C(Cl)(Cl)Cl)ns1)c1cccc([N+](=O)[O-])c1`: 198 °C; `CC1=CC(O)C(OC(=O)c2ccc(N)cc2N)C(C)(C)CC1=O` (stereo not drawn): 185 to 186 °C.

Compound `COC(=O)c1cccc(OC)c1OCCC#N` displayed a melting point of 74 to 75 °C. With `CCCN1C(=O)N2CC(c3cccnc3)CN=C2c2[nH]c(C3CCCC3)nc21` (stereo not drawn) the figure was 190 to 195 °C.

In the case of `COCOc1ccc(CCc2c(CC(N)=O)cc(OC)c(OC)c2OC)cc1OCc1ccccc1`, the melting point is 73 to 74 °C.

With `O=C(c1ccc2c(c1)OCC(c1ccccc1)=N2)N1CCOCC1`, the melting point is 175 to 177 °C.

The compound `Cc1cc(C(N)(C(F)(F)F)C(F)(F)F)cc(C)c1OCC(=O)O` registered a melting point of 138 °C. With `CC(C)COc1c(-c2ccc(S(N)(=O)=O)cc2)cnn(-c2ccc(F)c(F)c2)c1=O` the figure was 169 to 171 °C; with `COC(=O)c1cn2c(n1)COc1ccc(N)cc1-2`, 213 to 214 °C; with `CCOC(=O)C(C)NNc1cc(F)cc(F)c1` (stereo not drawn), 139 to 141 °C.

In turn, `O=C1NC(=O)C2(N1)C(=O)N(Cc1ccc(Cl)c(Cl)c1)c1ccc([N+](=O)[O-])cc12` (stereo not drawn) registered a melting point of 245 to 246 °C. Next, `COC(=O)c1ccc(-c2ccc(Cl)cc2)[nH]1`: 177 to 179 °C; `CC(=O)N(C)C(Cc1ccccc1N)c1sccc1C` (stereo not drawn): 176 to 182 °C; `CS(=O)(=O)NC(=O)c1cccc(N)c1`: 153 to 155 °C. Next, `CC(C)(C)CC(C)(C)c1cc(N=Nc2cc(C(F)(F)F)ccc2Cl)c(O)c(C(C)(C)c2ccccc2)c1`: 120 to 127 °C; `CC(=O)c1c(CCc2ccc(F)cc2)[nH]c2ccc(Cl)cc12`: 170 to 172 °C; `CCOc1ccc2c(c1)CCc1c(cccc1C(=O)O)S2`: 165 to 167 °C.

As for `Cc1cc2c(c(C)c1NC(=O)OC(C)(C)C)CCO2`, the melting point fell in the range of 121 to 122 °C. Next, `O=C1CNc2ncc(I)cc2N1Cc1cccnc1Cl`: 249 °C. Next, `Brc1c(OCc2ccc3ccccc3n2)ccc2ccccc12`: 130 to 132 °C; `CC[C@H](CO)Nc1nc(NCc2ccccc2)c2nnn(C(C)C)c2n1`: 115 to 118 °C; `NS(=O)(=O)c1ccc(NC(=O)Nc2c(F)c(F)c(F)c(F)c2F)cc1`: 251 to 253 °C. With `COc1cc(C)c(Cl)cc1C(C)=O` the figure was 83 °C.
